Source: ChEMBL document CHEMBL4825711, “Necrostatins regulate apoptosis, necroptosis, and inflammation in cisplatin-induced nephrotoxicity in LLC-PK1 cells” (2021)
The source made the active and inactive calls. The rule behind the calls is not given here.

Assays:
LLC-PK1 [1] = assay: Protection against cisplatin-induced nephrotoxicity in pig LLC-PK1 cells assessed as inhibition of apoptosis by measuring reduction in green stained cells at 50 uM measured after 24 hrs in presence of cisplatin by Tali image based cytometric analysis; format: functional, cell-based; conditions: Sus scrofa
LLC-PK1 [2] = assay: Inhibition of cisplatin-induced JNK phosphorylation in pig LLC-PK1 cells at 50 uM measured after 24 hrs in presence of cisplatin by western blot analysis; format: cell-based; conditions: Sus scrofa
LLC-PK1 [3] = assay: Inhibition of cisplatin-induced p38 MAPK phosphorylation in pig LLC-PK1 cells at 50 uM measured after 24 hrs in presence of cisplatin by western blot analysis; format: cell-based; conditions: Sus scrofa
LLC-PK1 [4] = assay: Protection against cisplatin-induced nephrotoxicity in pig LLC-PK1 cells assessed as inhibition of apoptosis by measuring decrease in cleaved caspase-3 level at 50 uM measured after 24 hrs in presence of cisplatin by western blot analysis; format: functional, cell-based; conditions: Sus scrofa
LLC-PK1 [5] = assay: Inhibition of cisplatin-induced ERK phosphorylation in pig LLC-PK1 cells at 50 uM measured after 24 hrs in presence of cisplatin by western blot analysis; format: cell-based; conditions: Sus scrofa
LLC-PK1 [6] = assay: Protection against cisplatin-induced nephrotoxicity in pig LLC-PK1 cells assessed as cell viability at 50 uM measured after 24 hrs in presence of cisplatin; format: functional; conditions: Sus scrofa, read-out: Activity
LLC-PK1 [7] = assay: Protection against cisplatin-induced nephrotoxicity in pig LLC-PK1 cells assessed as cell viability at 1000 uM measured after 24 hrs in presence of cisplatin; format: functional; conditions: Sus scrofa, read-out: Activity
LLC-PK1 [8] = assay: Protection against cisplatin-induced nephrotoxicity in pig LLC-PK1 cells assessed as increase in cell viability at 50 to 1000 uM measured after 24 hrs in presence of cisplatin; format: functional, cell-based; conditions: Sus scrofa, dose 50-1000 µM
LLC-PK1 [9] = assay: Protection against cisplatin-induced nephrotoxicity in pig LLC-PK1 cells assessed as increase in cell viability measured after 24 hrs in presence of cisplatin; format: functional, cell-based; conditions: Sus scrofa, dose 3.125-50 µM
LLC-PK1 [10] = assay: Protection against cisplatin-induced nephrotoxicity in pig LLC-PK1 cells assessed as inhibition of apoptosis by measuring red-stained dead cells at 50 uM measured after 24 hrs in presence of cisplatin by Tali image based cytometric analysis; format: functional, cell-based; conditions: Sus scrofa

| SMILES | Activity (LLC-PK1 [1]) | inhibition (LLC-PK1 [2]) | inhibition (LLC-PK1 [3]) | Activity (LLC-PK1 [4]) | inhibition (LLC-PK1 [5]) | viability at 50 µM (LLC-PK1 [6]) [%] | viability at 1000 µM (LLC-PK1 [7]) [%] | Activity (LLC-PK1 [8]) | Activity (LLC-PK1 [9]) | Activity (LLC-PK1 [10]) |
| --- | --- | --- | --- | --- | --- | --- | --- | --- | --- | --- |
| COc1ccc([C@H]2[C@@H]3CCc4ccc(OC)cc4C3=NN2C(C)=O)cc1 | Active | Active | Active | Active | Active | 84.5 | – | – | – | – |
| CC(=O)N[C@@H](CS)C(=O)O [ACETYLCYSTEINE] | – | – | – | – | – | – | 89.4 | Dose-Dependent Effect | – | – |
| CN1C(=O)C(Cc2c[nH]c3ccccc23)NC1=S (stereo not drawn) [NECROSTATIN] | Active | Active | Active | Active | Active | 90.5 | – | – | Dose-Dependent Effect | inactive |
| COc1ccc([C@H]2[C@H]3CCc4ccc(OC)cc4C3=NN2C(C)=O)cc1 | Active | Active | Active | Active | Active | 87.5 | – | – | Dose-Dependent Effect | – |
